Holding throughout (assay type): biochemical
One assay has as its target T1, LYPLA2 (Mus musculus, UniProt Q9WTL7).
T1 construct: a complex proteome endogenously expressing LYPLA1/2 was incubated with test compound; from tissue; host or cells: mouse brain, membrane fraction
The assay is described as follows: Gel-based competitive ABPP in vitro, mouse brain membrane proteome. The following applies: for inhibition at 0.1 µM: 0.1 μM compound, read-out: LYPLA2 % INH 0.1 μM; for inhibition at 0.1 µM / inhibition at 1 µM / inhibition at 10 µM / inhibition at 100 µM: 30 min, one replicate; for inhibition at 1 µM: 1 μM compound, read-out: LYPLA2 % INH 1 μM; for inhibition at 10 µM: 10 μM compound, read-out: LYPLA2 % INH 10 μM; for inhibition at 100 µM: 100 μM compound, read-out: LYPLA2 % INH 100 μM; for LYPLA2 in vitro enzyme activity, % @ 20 μM: mouse brain (mem) proteome. How it is done:
(§1) Assay Overview: The purpose of this assay was to determine whether test compounds can inhibit LYPLA1 and LYPLA2 in a complex proteomic lysate and to assess anti-target inhibition using a competitive activity-based proteomic profiling (ABPP) assay. In this assay, a complex proteome endogenously expressing LYPLA1/2 was incubated with test compound followed by reaction with a rhodamine-conjugated fluorophosphonate (FP-Rh) serine-hydrolase specific activity-based probe. The reaction products were separated by SDS-PAGE and visualized in-gel using a flatbed fluorescence scanner. The percentage activity remaining was determined by measuring the integrated optical density of the bands. […] Percent inhibition was calculated relative to a DMSO (no compound) control.
(§2) Protocol Summary: Mouse brain membrane proteome (50 μL reaction volume, 1 mg/mL in DPBS) was treated with 0.1-100 μM test compound (1 μL of a 50× stock in DMSO) for 30 minutes at 37° C. FP-Rh (1 μL of 50× stock in DMSO, Thermo #88318) was added to a final concentration of 2 μM. The reactions were incubated for 30 minutes at 25° C., quenched with 16 μL 4×SDS-PAGE loading buffer (reducing), separated by SDS-PAGE and visualized by in-gel fluorescent scanning. The percentage activity remaining was determined by measuring the integrated optical density of the bands relative to a DMSO-only (no compound) control. Assay Cutoff: Compounds with ≥50% inhibition of targets at 1 μM test compound concentration were considered active.
(§3) N-Hydroxy bicyclic hydantoin carbamates (Compounds 1-20) listed in Table 1 were subjected to gel-based competitive ABPP screening to assess SH reactivity against more than 20 FP-sensitive SHs visible by 1D SDS-PAGE separation and fluorescent detection in the mouse brain proteome (see FIG. 1). […] Compound treatment ([…], 30 minutes) was followed by labeling with SH-specific ABPP probe FP-Rh (2 μM, 30 minutes), 1D-SDS-PAGE, and in-gel fluorescent visualization of FP-labeled proteins. Assignment of LYPLA1/2 bands was based on correlation of molecular weights, expression and inhibition profiles with LC-MS/MS data and recombinant enzyme expression. Proteins were listed as anti-targets if at least 50% inhibition was observed as quantified relative to the DMSO control.
(§4) Compounds 1-20 were subjected to gel-based competitive ABPP profiling to assess potency and selectivity against several dozen FP-sensitive SHs in the mouse brain membrane proteome, which endogenously expresses LYPLA1 and LYPLA2, as well a diversity of potential SH anti-targets. Compounds were tested at 100 μM, 10 μM, 1 μM, and/or 0.1 μM compound concentration.

Another assay concerns the target T2, LYPLA1 (Mus musculus, UniProt P97823).
T2 construct: a complex proteome endogenously expressing LYPLA1/2 was incubated with test compound; from tissue; host or cells: mouse brain, membrane fraction
Described as above. The note with it: for inhibition at 0.1 µM: 0.1 μM compound, read-out: LYPLA1 % INH 0.1 μM; for inhibition at 0.1 µM / inhibition at 1 µM / inhibition at 10 µM / inhibition at 100 µM: 30 min, one replicate; for inhibition at 1 µM: 1 μM compound, read-out: LYPLA1 % INH 1 μM; for inhibition at 10 µM: 10 μM compound, read-out: LYPLA1 % INH 10 μM; for inhibition at 100 µM: 100 μM compound, read-out: LYPLA1 % INH 100 μM; for LYPLA1 in vitro enzyme activity, % @ 20 μM: mouse brain (mem) proteome. As for the experimental part: as §1, §2, §3, §4

Assay [1] has as its system FP-sensitive SHs in the mouse brain membrane proteome. Description: Gel-based competitive ABPP in vitro, mouse brain membrane proteome, anti-targets. The note with it: for Anti-target(s) 0.1 μM: SHs with at least 50% inhibition at 0.1 μM compound; for Anti-target(s) 1 μM: SHs with at least 50% inhibition at 1 μM compound; for Anti-target(s) 10 μM: SHs with at least 50% inhibition at 10 μM compound; for Anti-target(s) 100 μM: SHs with at least 50% inhibition at 100 μM compound. How it is done: as §1, §2, §3, §4

A further assay concerns the target T3, ABHD6 (Mus musculus, UniProt Q8R2Y0).
T3 construct: from tissue; host or cells: mouse brain, membrane fraction
T3 sequence (Q8R2Y0 1-336): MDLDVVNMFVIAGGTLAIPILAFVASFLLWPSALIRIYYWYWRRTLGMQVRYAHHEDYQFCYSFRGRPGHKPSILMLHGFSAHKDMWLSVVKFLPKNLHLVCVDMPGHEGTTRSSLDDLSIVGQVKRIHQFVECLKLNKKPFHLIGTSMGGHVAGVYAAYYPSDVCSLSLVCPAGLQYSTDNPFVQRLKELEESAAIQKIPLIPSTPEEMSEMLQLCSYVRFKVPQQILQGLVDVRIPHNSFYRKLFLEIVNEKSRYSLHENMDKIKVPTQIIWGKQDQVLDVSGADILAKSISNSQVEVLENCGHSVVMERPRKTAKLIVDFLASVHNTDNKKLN
Description: Gel-based competitive ABPP in vitro, mouse brain membrane proteome. The note with it: for ABHD6 in vitro enzyme activity, % @ 20 μM: mouse brain (mem) proteome. As for the experimental part:
as §1, §2
Assay Overview: The purpose of this assay was to determine IC50 values of powder samples of test compounds for enzyme of interest activity, and anti-targets in a complex proteomic lysate using a gel-based competitive ABPP assay. In this assay, a complex proteome was incubated with test compound followed by reaction with FP-Rh and SDS-PAGE analysis as described above.
Protocol Summary: Soluble HeLa cell proteome (50 μL reaction volume, 1 mg/mL in DPBS) or mouse brain membrane proteome (50 μL reaction volume, 1 mg/mL in DPBS) was treated with varying concentrations of test compound (1 μL of a 50× stock in DMSO) for 30 minutes at 37° C. FP-Rh (1 μL of 50× stock in DMSO) was added to a final concentration of 2 μM. The reaction was incubated for 30 minutes at 25° C., quenched with 16 μL 4×SDS-PAGE loading buffer (reducing), separated by SDS-PAGE and visualized by in-gel fluorescent scanning. The percentage activity remaining was determined by measuring the integrated optical density of the enzymes of interest, and anti-target bands relative to a DMSO-only (no compound) control. IC50 values were determined from dose-response curves from three replicates at each inhibitor concentration: 1, 10, 100, 1000, 10000 nM and 0.01, 0.1, 1, 10, 100, 1000, 10000, 50000, and 100000 nM.

Entries after “also recorded” stand apart in the source; their conditions may differ.

T1 sequence (Q9WTL7 whole entry): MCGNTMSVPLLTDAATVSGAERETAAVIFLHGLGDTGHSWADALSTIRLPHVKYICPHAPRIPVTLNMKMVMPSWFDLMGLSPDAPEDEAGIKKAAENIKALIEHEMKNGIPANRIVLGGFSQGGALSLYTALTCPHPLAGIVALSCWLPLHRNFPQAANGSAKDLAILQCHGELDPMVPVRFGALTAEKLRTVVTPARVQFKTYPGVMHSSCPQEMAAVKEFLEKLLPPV
T2 sequence (P97823 whole entry): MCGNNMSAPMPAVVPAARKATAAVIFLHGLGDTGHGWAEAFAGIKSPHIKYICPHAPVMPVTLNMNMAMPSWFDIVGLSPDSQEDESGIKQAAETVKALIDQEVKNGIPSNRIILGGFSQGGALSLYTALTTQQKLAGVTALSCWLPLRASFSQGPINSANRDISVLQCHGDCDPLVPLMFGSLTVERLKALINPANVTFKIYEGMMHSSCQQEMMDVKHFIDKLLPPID

For `CC(C)(C)OC(=O)N1CCN2C(=O)N(OC(=O)N3CCN(CCc4ccccc4)CC3)C(=O)C2C1` (stereo not shown) [Compound 17, tert-butyl 1,3-dioxo-2-(4-phenethylpiperazine-1-carbonyloxy)hexahydroimidazo[1,5-a]pyrazine-7(1H)-carboxylate], on LYPLA2, the inhibition at 0.1 µM came out at 0%, the inhibition at 1 µM turned out to be 0%, the inhibition at 10 µM amounted to 50% and the inhibition at 100 µM was determined as 75%. In addition, on LYPLA1, the inhibition at 0.1 µM came out at 0%, the inhibition at 1 µM is 0%, the inhibition at 10 µM was 75% and the inhibition at 100 µM came to 90%. For the same compound, in assay [1], the “Anti-target(s) 0.1 μM” value is given as “ABHD6”, the “Anti-target(s) 1 μM” value is reported as “ABHD6”, the “Anti-target(s) 10 μM” value is “ABHD6” and the “Anti-target(s) 100 μM” value was “FAAH,; also recorded: ABHD12,; also recorded: ABHD6”.
As to `CC(C)(C)OC(=O)N1CCN2C(=O)N(OC(=O)N3CCN(C(c4ccc(Cl)cc4)c4ccc(Cl)cc4)CC3)C(=O)C2C1` (stereo not shown) [Compound 18, tert-butyl 2-(4-(bis(4-chlorophenyl)methyl)piperazine-1-carbonyloxy)-1,3-dioxohexahydroimidazo[1,5-a]pyrazine-7(1H)-carboxylate], on LYPLA2, the inhibition at 0.1 µM worked out at 0%, the inhibition at 1 µM was found to be 10%, the inhibition at 10 µM was found to be 50% and the inhibition at 100 µM came out at 60%. Besides, on LYPLA1, the inhibition at 0.1 µM stood at 0%, the inhibition at 1 µM is 10%, the inhibition at 10 µM came out at 50% and the inhibition at 100 µM was 60%. Further, in assay [1], the “Anti-target(s) 0.1 μM” value is recorded as “ABHD6”, the “Anti-target(s) 1 μM” value was “ABHD6”, the “Anti-target(s) 10 μM” value is given as “ABHD6” and the “Anti-target(s) 100 μM” value is reported as “ABHD6”.
Consider `CC(C)(C)OC(=O)N1CCN2C(=O)N(OC(=O)N3CCC(C(=O)Nc4ccccc4)CC3)C(=O)C2C1` (stereo not shown) [Compound 19, tert-butyl 1,3-dioxo-2-(4-(phenylcarbamoyl)piperidine-1-carbonyloxy)hexahydroimidazo[1,5-a]pyrazine-7(1H)-carboxylate], for which, at LYPLA2, the inhibition at 0.1 µM was determined as 0%, the inhibition at 1 µM amounted to 0%, the inhibition at 10 µM was 0% and the inhibition at 100 µM worked out at 25%. At LYPLA1, the inhibition at 0.1 µM turned out to be 0%, the inhibition at 1 µM amounted to 0%, the inhibition at 10 µM was 10% and the inhibition at 100 µM came out at 50%. Further, in assay [1], the “Anti-target(s) 0.1 μM” value was “ABHD6”, the “Anti-target(s) 1 μM” value is “ABHD6”, the “Anti-target(s) 10 μM” value is recorded as “ABHD6” and the “Anti-target(s) 100 μM” value is reported as “FAAH,; also recorded: ABHD6”.
Turning to `CCN(C(=O)C1CCN(C(=O)ON2C(=O)C3CN(C(=O)OC(C)(C)C)CCN3C2=O)CC1)c1ccccc1` (stereo not shown) [Compound 20, tert-butyl 2-(4-(ethyl(phenyl)carbamoyl)piperidine-1-carbonyloxy)-1,3-dioxohexahydroimidazo[1,5-a]pyrazine-7(1H)-carboxylate], on LYPLA2, the inhibition at 0.1 µM was 0%, the inhibition at 1 µM was found to be 10%, the inhibition at 10 µM amounted to 75% and the inhibition at 100 µM was 100%. Moreover, on LYPLA1, the inhibition at 0.1 µM came to 0%, the inhibition at 1 µM stood at 10%, the inhibition at 10 µM is 100% and the inhibition at 100 µM came to 100%. In addition, in assay [1], the “Anti-target(s) 0.1 μM” value is on record as “ABHD6”, the “Anti-target(s) 1 μM” value is “ABHD6”, the “Anti-target(s) 10 μM” value is “ABHD6” and the “Anti-target(s) 100 μM” value was “ABHD6”.
Take `COc1ccc(N2CCN(C(=O)ON3C(=O)C4CN(C(=O)OC(C)(C)C)CCN4C3=O)CC2)cc1` (stereo not shown) [Compound 21, tert-butyl 2-((4-(4-methoxyphenyl)piperazine-1-carbonyl)oxy)-1,3-dioxohexahydroimidazo[1,5-a]pyrazine-7(1H)-carboxylate]: the “LYPLA2 in vitro enzyme activity, % @ 20 μM” value at LYPLA2 is listed as 0% @. The “LYPLA1 in vitro enzyme activity, % @ 20 μM” value at LYPLA1 came out at 0% @. In addition, the “ABHD6 in vitro enzyme activity, % @ 20 μM” value at ABHD6 was determined as 100% @.
Turning to `COc1ccc(N2CCN(C(=O)ON3C(=O)C4CN(C)CCN4C3=O)CC2)cc1` (stereo not shown) [Compound 23, 7-methyl-1,3-dioxohexahydroimidazo[1,5-a]pyrazin-2(3H)-yl 4-(4-methoxyphenyl)piperazine-1-carboxylate], the “LYPLA2 in vitro enzyme activity, % @ 20 μM” value at LYPLA2 was 0% @. The “LYPLA1 in vitro enzyme activity, % @ 20 μM” value at LYPLA1 amounted to 0% @. Besides, the “ABHD6 in vitro enzyme activity, % @ 20 μM” value on ABHD6 is 100% @.
In the case of `COc1ccc(N2CCN(C(=O)ON3C(=O)NC(C(C)C)C3=O)CC2)cc1` (stereo not shown) [MJN193, 4-isopropyl-2,5-dioxoimidazolidin-1-yl 4-(4-methoxyphenyl)piperazine-1-carboxylate], the “potency and selectivity for ABHD6, concentration-dependent profiling” value at ABHD6 (mouse brain membrane SHs, FIG. 7B) was “good potency and selectivity”.
